Values belong to the compound of their own block, whether it stands above or below them.
Assays:
[1] = target: Protein arginine N-methyltransferase 6 (Homo sapiens, UniProt Q96LA8); assay: Selectivity interaction (Methyltransferase screen (radiometric assays, panel of 8 PRMTs, 21 protein lysine methyltransferases, 3 DNA methyltransferases, and one RNA methyltransferase)) EUB0000271b PRMT6
[2] = target: T1, Protein arginine N-methyltransferase 9 (Homo sapiens) (UniProt Q6P2P2); assay: Selectivity interaction (Methyltransferase screen (radiometric assays, panel of 8 PRMTs, 21 protein lysine methyltransferases, 3 DNA methyltransferases, and one RNA methyltransferase)) EUB0000272b PRMT9
T1 sequence (whole entry): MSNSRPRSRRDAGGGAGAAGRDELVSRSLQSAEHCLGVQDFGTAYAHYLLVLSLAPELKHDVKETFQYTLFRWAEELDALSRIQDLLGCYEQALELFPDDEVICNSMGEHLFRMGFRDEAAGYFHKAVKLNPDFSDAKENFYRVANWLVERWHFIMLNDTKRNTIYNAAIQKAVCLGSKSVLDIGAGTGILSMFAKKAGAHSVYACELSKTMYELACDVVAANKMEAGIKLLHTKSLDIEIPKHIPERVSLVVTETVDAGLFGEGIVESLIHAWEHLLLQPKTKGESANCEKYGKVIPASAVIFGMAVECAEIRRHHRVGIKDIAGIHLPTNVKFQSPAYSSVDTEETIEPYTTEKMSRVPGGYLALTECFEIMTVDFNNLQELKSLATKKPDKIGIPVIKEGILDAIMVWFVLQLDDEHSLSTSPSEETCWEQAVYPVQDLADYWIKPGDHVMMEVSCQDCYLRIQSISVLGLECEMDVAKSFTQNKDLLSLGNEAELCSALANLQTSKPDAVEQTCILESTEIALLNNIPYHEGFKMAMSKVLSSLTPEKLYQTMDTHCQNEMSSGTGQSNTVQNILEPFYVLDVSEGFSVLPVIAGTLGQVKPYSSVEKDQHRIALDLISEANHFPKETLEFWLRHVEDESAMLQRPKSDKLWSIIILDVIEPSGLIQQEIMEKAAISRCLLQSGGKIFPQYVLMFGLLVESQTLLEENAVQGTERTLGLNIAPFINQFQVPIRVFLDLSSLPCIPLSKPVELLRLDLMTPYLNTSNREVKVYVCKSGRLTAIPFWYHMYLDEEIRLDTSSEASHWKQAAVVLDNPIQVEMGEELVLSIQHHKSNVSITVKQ

[3] = target: Serine/threonine-protein kinase MARK1 (Homo sapiens) (UniProt Q9P0L2); assay: Selectivity interaction (KinomeScan (DiscoverX)) EUB0000655a MARK1; settings: at 10 µM
Sequence of Serine/threonine-protein kinase MARK1 (Homo sapiens) (Q9P0L2 whole entry, looked up): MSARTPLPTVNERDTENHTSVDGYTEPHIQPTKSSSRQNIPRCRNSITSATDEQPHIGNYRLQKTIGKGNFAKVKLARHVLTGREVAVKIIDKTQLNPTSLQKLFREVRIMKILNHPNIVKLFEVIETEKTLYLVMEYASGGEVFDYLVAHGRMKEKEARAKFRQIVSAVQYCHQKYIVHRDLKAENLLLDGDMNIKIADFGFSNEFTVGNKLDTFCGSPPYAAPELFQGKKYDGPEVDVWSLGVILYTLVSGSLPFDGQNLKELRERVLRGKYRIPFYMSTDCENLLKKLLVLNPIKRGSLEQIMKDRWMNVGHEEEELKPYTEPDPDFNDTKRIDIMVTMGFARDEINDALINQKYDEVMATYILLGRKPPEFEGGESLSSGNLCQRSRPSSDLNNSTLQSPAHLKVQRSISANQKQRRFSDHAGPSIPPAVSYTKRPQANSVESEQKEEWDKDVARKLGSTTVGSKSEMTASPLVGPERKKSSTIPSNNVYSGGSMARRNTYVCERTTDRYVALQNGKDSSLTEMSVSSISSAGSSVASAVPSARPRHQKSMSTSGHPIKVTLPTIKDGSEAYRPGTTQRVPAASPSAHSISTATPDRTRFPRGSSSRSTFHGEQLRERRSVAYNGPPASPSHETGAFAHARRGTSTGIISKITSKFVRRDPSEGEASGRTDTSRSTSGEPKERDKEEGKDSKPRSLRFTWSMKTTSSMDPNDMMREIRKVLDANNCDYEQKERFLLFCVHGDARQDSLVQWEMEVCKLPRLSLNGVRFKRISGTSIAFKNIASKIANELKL

[4] = test system: Tyrosine-protein kinase ABL1 (Homo sapiens), P00519 [T315I]; assay: (§1) Selectivity interaction (KinomeScan (DiscoverX)) EUB0000655a ABL1; settings: at 10 µM
[5] = test system: Tyrosine-protein kinase ABL1 (Homo sapiens), P00519 [Q252H]; assay: as §1; settings: at 10 µM
[6] = test system: Tyrosine-protein kinase ABL1 (Homo sapiens), P00519 [E255K]; assay: as §1; settings: at 10 µM
[7] = test system: Tyrosine-protein kinase ABL1 (Homo sapiens), P00519 [H396P]; assay: as §1; settings: at 10 µM
[8] = test system: Tyrosine-protein kinase ABL1 (Homo sapiens), P00519 [Y253F]; assay: as §1; settings: at 10 µM
[9] = test system: Tyrosine-protein kinase ABL1 (Homo sapiens), P00519 [F317I]; assay: as §1; settings: at 10 µM
[10] = test system: Tyrosine-protein kinase ABL1 (Homo sapiens), P00519 [M351T]; assay: as §1; settings: at 10 µM
[11] = test system: Tyrosine-protein kinase ABL1 (Homo sapiens), P00519 [F317L]; assay: as §1; settings: at 10 µM
[12] = target: Tyrosine-protein kinase ABL1 (Homo sapiens, UniProt P00519); assay: as §1; settings: at 10 µM
[13] = target: Serine/threonine-protein kinase PRP4 homolog (Homo sapiens) (UniProt Q13523); assay: Selectivity interaction (KinomeScan (DiscoverX)) EUB0000618a PRPF4; settings: at 10 µM
Sequence of Serine/threonine-protein kinase PRP4 homolog (Homo sapiens) (Q13523 whole entry): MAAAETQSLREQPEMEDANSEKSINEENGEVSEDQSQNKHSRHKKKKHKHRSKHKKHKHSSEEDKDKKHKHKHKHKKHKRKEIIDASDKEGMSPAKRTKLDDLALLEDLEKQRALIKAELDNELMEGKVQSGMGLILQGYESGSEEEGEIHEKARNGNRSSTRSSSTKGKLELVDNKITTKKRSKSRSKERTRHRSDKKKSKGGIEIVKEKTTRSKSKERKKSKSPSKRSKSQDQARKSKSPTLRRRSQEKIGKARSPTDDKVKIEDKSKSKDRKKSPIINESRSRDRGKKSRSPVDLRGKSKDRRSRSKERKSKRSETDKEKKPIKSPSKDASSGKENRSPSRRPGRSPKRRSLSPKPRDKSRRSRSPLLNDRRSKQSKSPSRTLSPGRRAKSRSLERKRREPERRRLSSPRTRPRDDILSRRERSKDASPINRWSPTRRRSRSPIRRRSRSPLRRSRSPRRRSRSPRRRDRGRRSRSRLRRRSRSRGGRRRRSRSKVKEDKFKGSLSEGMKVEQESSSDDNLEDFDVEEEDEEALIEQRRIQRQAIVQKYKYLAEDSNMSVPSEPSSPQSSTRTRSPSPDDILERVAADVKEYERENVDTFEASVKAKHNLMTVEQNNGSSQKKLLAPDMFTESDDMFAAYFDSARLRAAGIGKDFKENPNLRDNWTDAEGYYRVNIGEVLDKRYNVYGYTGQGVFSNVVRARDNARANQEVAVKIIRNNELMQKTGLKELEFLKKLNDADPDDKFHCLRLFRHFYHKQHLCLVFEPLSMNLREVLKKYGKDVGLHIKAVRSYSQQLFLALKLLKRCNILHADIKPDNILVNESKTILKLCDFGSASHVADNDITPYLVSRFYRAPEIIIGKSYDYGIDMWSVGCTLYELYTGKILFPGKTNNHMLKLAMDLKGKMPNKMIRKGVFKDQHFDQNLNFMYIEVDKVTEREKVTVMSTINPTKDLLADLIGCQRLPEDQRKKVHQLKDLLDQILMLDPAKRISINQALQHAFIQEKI

[14] = target: Cyclin-dependent kinase 13 (Homo sapiens, UniProt Q14004); assay: Selectivity interaction (KinomeScan (DiscoverX)) EUB0000618a CDK13; settings: at 10 µM
[15] = target: High affinity nerve growth factor receptor (Homo sapiens, UniProt P04629); assay: Selectivity interaction (KinomeScan (DiscoverX)) EUB0000607a NTRK1; settings: at 10 µM
Sequence of High affinity nerve growth factor receptor (P04629 33-796 limits assumed): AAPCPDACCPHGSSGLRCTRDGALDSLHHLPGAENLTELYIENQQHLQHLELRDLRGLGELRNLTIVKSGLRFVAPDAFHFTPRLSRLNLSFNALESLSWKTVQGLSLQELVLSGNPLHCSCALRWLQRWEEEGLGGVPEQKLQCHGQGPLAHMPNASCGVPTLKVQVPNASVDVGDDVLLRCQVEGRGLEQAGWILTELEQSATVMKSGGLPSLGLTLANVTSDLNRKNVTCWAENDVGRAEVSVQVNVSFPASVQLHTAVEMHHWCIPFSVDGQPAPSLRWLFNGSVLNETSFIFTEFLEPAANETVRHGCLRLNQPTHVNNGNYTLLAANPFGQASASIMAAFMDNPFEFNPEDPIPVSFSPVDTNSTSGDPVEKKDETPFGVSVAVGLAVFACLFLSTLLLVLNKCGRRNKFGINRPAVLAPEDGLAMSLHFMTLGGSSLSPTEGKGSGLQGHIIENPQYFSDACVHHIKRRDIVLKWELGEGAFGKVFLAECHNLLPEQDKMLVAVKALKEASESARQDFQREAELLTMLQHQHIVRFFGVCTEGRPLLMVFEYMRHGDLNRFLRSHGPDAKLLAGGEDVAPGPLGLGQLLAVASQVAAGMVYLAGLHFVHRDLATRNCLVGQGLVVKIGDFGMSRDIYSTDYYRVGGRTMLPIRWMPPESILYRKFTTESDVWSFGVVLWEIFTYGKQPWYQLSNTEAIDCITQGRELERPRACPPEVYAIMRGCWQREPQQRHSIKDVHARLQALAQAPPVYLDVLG

[16] = target: Diacylglycerol kinase alpha (Homo sapiens) (UniProt P23743); assay: Selectivity interaction (ActivX KiNativ screen (ex vivo kinase selectivity in human PBMCs)) EUB0001619a DGKA; format: cell-based; settings: PBMC, at 1 µM
Sequence of Diacylglycerol kinase alpha (Homo sapiens) (P23743 whole entry): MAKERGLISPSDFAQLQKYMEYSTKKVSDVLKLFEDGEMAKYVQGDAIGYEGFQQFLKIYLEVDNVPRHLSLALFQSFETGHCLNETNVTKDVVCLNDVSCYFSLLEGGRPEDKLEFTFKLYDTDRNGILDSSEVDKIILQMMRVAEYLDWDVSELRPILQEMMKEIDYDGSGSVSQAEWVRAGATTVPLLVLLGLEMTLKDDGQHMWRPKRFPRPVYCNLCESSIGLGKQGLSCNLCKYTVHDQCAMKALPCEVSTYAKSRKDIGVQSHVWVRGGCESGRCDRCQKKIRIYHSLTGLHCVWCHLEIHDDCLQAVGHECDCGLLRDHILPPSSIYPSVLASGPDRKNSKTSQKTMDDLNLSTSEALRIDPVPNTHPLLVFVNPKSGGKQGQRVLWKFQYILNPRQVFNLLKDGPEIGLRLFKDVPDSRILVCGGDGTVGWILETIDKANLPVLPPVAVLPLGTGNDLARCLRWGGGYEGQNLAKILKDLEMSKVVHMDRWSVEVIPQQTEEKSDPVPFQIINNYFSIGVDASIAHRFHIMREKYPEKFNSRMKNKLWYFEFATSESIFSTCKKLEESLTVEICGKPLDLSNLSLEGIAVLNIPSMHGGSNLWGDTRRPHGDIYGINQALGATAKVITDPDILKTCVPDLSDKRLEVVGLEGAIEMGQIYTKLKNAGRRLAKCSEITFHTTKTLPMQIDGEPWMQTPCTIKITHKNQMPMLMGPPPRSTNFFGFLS

[17] = target: 5'-AMP-activated protein kinase catalytic subunit alpha-2 (Homo sapiens) (UniProt P54646); settings: at 10 µM
Sequence of 5'-AMP-activated protein kinase catalytic subunit alpha-2 (Homo sapiens) (P54646 whole entry, looked up): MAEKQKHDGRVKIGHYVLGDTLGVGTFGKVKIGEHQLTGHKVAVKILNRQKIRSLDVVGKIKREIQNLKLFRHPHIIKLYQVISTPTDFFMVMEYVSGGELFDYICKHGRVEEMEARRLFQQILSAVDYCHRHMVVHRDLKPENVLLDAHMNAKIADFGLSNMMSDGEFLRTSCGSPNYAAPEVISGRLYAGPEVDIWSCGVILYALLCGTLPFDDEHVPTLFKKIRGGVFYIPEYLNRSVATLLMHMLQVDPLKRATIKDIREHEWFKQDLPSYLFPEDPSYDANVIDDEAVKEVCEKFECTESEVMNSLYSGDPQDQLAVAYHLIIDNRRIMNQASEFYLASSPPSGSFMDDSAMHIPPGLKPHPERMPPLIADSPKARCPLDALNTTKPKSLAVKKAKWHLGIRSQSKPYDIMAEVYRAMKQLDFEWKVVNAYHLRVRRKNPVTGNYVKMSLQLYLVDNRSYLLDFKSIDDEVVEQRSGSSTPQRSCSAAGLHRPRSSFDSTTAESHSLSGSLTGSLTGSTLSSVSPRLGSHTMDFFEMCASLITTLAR

[18] = target: Ribosomal protein S6 kinase beta-1 (Homo sapiens, UniProt P23443); assay: Selectivity interaction (ActivX KiNativ screen (kinase selectivity in THP-1 cell lysates)) EUB0000639a RPS6KB1; format: subcellular; settings: lysate
Sequence of Ribosomal protein S6 kinase beta-1 (P23443 whole entry, looked up): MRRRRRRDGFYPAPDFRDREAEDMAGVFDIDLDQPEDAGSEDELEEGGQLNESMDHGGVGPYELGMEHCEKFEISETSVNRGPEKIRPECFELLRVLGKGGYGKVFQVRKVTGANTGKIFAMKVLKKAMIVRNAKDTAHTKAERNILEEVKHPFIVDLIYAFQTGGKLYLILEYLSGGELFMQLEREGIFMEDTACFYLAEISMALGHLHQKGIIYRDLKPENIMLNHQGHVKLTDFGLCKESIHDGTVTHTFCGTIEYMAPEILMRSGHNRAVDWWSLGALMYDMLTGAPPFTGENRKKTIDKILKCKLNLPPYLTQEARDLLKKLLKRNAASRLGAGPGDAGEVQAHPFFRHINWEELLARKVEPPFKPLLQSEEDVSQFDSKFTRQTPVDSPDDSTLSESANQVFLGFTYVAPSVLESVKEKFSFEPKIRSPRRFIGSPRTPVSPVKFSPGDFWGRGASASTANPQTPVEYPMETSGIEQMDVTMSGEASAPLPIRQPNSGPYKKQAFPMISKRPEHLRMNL

[19] = target: T2, NUAK family SNF1-like kinase 1 (Homo sapiens) (UniProt O60285); assay: Selectivity interaction (Kinase panel (Invitrogen)) EUB0000639a NUAK1; settings: at 200 nM
T2 sequence (whole entry): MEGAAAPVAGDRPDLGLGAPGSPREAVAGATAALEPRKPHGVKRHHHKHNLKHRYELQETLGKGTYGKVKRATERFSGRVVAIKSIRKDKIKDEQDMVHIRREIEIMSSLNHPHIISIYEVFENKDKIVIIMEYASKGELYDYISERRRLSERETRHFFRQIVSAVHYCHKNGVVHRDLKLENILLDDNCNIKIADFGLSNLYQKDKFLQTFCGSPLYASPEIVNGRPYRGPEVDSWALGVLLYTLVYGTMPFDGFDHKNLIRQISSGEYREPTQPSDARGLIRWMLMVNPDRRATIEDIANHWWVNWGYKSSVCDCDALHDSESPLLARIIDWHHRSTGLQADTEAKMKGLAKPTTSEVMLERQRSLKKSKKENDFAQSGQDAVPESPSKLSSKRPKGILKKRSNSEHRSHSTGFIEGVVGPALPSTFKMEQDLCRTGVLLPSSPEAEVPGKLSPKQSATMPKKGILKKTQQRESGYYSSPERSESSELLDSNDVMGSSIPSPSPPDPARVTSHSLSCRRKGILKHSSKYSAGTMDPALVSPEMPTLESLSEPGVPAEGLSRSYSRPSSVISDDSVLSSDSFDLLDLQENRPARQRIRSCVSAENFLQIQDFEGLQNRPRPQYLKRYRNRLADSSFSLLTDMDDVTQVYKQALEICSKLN

[20] = test system: NPM/ALK (Nucleophosmin/ALK tyrosine kinase receptor) (Homo sapiens), Q9UM73+P06748 [F1174L]; assay: Selectivity interaction (ProQinase) EUB0000171b ALK; format: protein assay
[21] = test system: Tyrosine-protein kinase ABL1 (Homo sapiens), P00519 [Q252H]; assay: Selectivity interaction (KinomeScan (DiscoverX)) EUB0001049a ABL1; settings: at 1 µM

Sequence of Protein arginine N-methyltransferase 6 (Q96LA8 whole entry, looked up): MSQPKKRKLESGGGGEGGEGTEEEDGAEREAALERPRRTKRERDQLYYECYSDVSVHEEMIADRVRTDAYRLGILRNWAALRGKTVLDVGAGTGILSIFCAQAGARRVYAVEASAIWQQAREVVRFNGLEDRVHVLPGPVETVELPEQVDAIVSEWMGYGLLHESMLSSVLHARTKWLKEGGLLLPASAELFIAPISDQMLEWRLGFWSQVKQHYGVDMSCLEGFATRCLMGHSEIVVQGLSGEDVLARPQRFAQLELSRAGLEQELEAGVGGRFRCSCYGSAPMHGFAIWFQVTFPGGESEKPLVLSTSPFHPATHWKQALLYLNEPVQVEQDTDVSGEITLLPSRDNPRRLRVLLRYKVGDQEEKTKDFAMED

SMILES: Cc1cc(C)cc([C@@H]2c3cc(C)ccc3NC(=O)CN2C(=O)c2ccc(Br)s2)c1
% of activity ([1]; at 1 µM): 16.7% | % of activity ([1]; at 10 µM): 7.33%

% of activity ([2]; at 1 µM): 105% | % of activity ([2]; at 10 µM): 105%
SMILES: Cc1cc(C)cc([C@H]2c3cc(C)ccc3NC(=O)CN2C(=O)c2ccc(Br)s2)c1

SMILES: CN(C)CCOc1ccc(-c2nc(-c3ccncc3)c(-c3ccc4c(c3)CC/C4=N\O)[nH]2)cc1
% of control [3]: 100% | % of control [4]: 1.6% | % of control [5]: 3% | % of control [6]: 8.6% | % of control [7]: 1.3% | % of control [8]: 9.1% | % of control [9]: 72% | % of control [10]: 11% | % of control [11]: 37% | % of control [12]: 10%

SMILES: O[C@H]1CC[C@H](Nc2ncc3nc(Nc4c(F)cc(F)cc4F)n([C@H]4CCOC4)c3n2)CC1
% of control [13]: 100% | % of control [14]: 90%

SMILES: CNC(=O)Nc1ccc(-c2nc(N3CC4CCC(C3)O4)c3cnn(C4CCC5(CC4)OCCO5)c3n2)cc1
% of control [15]: 100%

SMILES: N#Cc1cccc(-c2c[nH]c3ncnc(N4CCOCC4)c23)c1
% of inhibition [16]: -9%

SMILES: Cc1cc([C@@H](C)Nc2ccccc2C(=O)O)c2nc(N3CCOCC3)cc(=O)n2c1 [AZD-6482]
% of control [17]: 88%

% of inhibition ([18]; at 0.01 µM): 17.1% | % of inhibition ([18]; at 0.04 µM): -0.8% | % of inhibition ([18]; at 0.2 µM): -21.6% | % of inhibition ([18]; at 1 µM): -2.2% | % of inhibition ([18]; at 5 µM): -3% | % of inhibition [19]: 2.96%
SMILES: CC[C@@H]1[C@H](F)C(=O)N[C@@H]1COc1nccc2cc(C(N)=O)c(OC)cc12 [ZIMLOVISERTIB]

% of control ([20]; at 1 µM): 104% | % of control ([20]; at 5 µM): 106%
SMILES: C=CC(=O)Nc1cccc(C(=O)Nc2ccc(Nc3cc(-c4[nH]c(SC)nc4C)ccn3)cc2)c1

SMILES: COc1cc(Nc2nc(C)cc(-c3cnn4nc(OC)ccc34)n2)cc(C(F)(F)F)c1
% of control [21]: 80%

From ChEMBL document CHEMBL5465560, “Selectivity Literature for EUbOPEN Chemogenomic Library” (2024)
